Assay results: the NIST ThermoML archive (doi:10.1016/j.tca.2010.12.008)
Numbers after ± are expanded uncertainties.

Settings: Crystal 2; visual observation

`CC(C)(C)P(=O)(O)C(C)(C)C` [di-tert-butylphosphinic acid] gave a Triple point temperature of 37.8 ± 0.5 K.
